Measurements reported in patent US10669272B2, “Substituted naphthyridinone compounds useful as T cell activators” (BRISTOL-MYERS SQUIBB COMPANY, priority 2018, dated 2020).
Read-outs that look alike come from different tables or passages of the source.

Tests used:
[1] = tested on: Human venous whole blood; test: Human whole blood IFN-γ assay; assay type: cell-based; details: human whole blood, read-out: INFg Whole Blood Normalized Agonist EC50;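 note: blood from healthy donors exposed to compound for 1 h before stimulation with anti-CD3 and anti-CD28 at 1 µg/mL each, IFN-γ quantified in supernatant by AlphaLISA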
[2] = biological target: T1, human DGKζ (Homo sapiens, UniProt Q13574); test: DGKζ LIPGLO assay (extruded liposome substrate), in vitro DGK inhibition; assay type: biochemical; details: read-out: DGKz LIPGLO IC50
T1 construct: TVMV protease cleavage site (C); Hexa-His (C); made in house; host or cells: Sf9 insect cells (baculovirus, Bac-to-Bac)
T1 sequence (Q13574 with tags, fused parts or gaps isoform Q13574-4): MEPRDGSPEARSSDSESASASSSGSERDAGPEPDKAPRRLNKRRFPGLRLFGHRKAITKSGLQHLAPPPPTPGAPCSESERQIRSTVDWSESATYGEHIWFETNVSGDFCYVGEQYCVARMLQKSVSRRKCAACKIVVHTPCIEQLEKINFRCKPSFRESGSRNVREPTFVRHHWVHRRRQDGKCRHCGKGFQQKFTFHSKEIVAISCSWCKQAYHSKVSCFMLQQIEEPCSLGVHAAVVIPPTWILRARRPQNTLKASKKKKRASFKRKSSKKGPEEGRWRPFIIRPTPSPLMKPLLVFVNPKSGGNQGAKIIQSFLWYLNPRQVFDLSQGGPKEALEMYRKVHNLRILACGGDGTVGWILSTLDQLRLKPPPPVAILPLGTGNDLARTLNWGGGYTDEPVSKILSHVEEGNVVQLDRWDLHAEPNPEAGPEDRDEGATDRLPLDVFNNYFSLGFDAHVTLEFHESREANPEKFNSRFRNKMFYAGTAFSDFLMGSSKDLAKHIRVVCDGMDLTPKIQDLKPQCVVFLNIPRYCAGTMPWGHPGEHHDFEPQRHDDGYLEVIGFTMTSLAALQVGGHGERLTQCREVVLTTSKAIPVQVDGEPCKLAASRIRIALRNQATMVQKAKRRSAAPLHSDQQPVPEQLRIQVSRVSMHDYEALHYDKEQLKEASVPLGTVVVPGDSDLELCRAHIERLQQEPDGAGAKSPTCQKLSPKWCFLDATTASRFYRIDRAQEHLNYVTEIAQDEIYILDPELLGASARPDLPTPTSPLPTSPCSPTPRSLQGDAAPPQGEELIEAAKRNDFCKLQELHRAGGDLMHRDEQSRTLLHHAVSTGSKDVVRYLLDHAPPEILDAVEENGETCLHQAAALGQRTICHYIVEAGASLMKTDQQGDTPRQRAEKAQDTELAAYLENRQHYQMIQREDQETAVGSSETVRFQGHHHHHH

[3] = biological target: T2, human DGKα (Homo sapiens, UniProt P23743); test: DGKα LIPGLO assay (extruded liposome substrate), in vitro DGK inhibition; assay type: biochemical; details: read-out: DGKa LIPGLO IC50
T2 construct: TVMV protease cleavage site (C); Hexa-His (C); made in house; host or cells: Sf9 insect cells (baculovirus, Bac-to-Bac)
T2 sequence (P23743 with tags, fused parts or gaps): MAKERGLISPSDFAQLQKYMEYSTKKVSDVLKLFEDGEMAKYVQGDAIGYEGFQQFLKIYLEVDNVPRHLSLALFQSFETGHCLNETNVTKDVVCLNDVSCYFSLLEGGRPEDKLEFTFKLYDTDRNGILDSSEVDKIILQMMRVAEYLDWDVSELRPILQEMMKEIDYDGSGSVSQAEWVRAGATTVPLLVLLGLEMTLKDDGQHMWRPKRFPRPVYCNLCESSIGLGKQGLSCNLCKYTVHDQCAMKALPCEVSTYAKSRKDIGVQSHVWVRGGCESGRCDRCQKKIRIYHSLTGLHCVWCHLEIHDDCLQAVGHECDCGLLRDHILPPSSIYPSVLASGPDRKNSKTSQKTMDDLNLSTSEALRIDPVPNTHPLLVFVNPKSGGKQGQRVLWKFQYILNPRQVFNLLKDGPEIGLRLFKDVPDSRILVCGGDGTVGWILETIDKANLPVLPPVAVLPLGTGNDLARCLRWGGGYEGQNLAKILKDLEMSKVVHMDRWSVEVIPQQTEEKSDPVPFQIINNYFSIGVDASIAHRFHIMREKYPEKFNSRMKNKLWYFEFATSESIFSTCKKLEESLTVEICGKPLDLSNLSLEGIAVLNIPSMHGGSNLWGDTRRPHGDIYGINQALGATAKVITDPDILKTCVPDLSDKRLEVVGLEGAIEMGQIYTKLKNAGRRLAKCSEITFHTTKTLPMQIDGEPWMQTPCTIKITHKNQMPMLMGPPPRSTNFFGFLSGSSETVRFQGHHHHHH

[4] = normalized to 3 μM reference compound with anti-CD3 plus anti-CD28 as 100% activation
[5] = Homo sapiens, 24 h, normalized to 3 μM reference compound with anti-CD3 plus anti-CD28 as 100% activation
[6] = anti-CD3 plus anti-CD28, 24 hours, 3 μM reference compound = 100% activation
[7] = Homo sapiens, 24 h, anti-CD3 plus anti-CD28, 24 hours, 3 μM reference compound = 100% activation

| Structure (SMILES) | IC50 ([2]; liposome (LIPGLO) assay) [nM] | IC50 ([3]; liposome (LIPGLO) assay) [nM] | IC50 ([2]; DGKζ liposome (LIPGLO) assay) [nM] | IC50 ([3]; DGKα liposome (LIPGLO) assay) [nM] | EC50 [1, 4] [nM] | EC50 [1, 5] [nM] | EC50 [1, 6] [nM] | EC50 [1, 7] [nM] |
| --- | --- | --- | --- | --- | --- | --- | --- | --- |
| C[C@@H]1CN(c2cc(=O)n(C)c3ccc(C#N)nc23)[C@@H](C)CN1C(c1ccc(F)cc1)c1cccc(C(F)(F)F)n1 (stereo partly drawn) [Example 679] | 720 | 5400 | – | – | 1300 | – | – | – |
| CC(C)Oc1ccc(C(c2cccc(F)c2)N2C[C@H](C)N(c3cc(=O)n(C)c4ccc(C#N)nc34)C[C@H]2C)nc1 (stereo partly drawn) [Example 690] | 390 | 1500 | – | – | – | 3500 | – | – |
| CC(C)Oc1ccc(C(c2cccc(F)c2)N2C[C@H](C)N(c3cc(=O)n(C)c4ccc(C#N)nc34)C[C@H]2C)nc1 (stereo partly drawn) [Example 691] | 560 | 4500 | – | – | 2700 | – | – | – |
| C[C@@H]1CN(c2c(C#N)c(=O)n(C)c3ccc(C#N)nc23)[C@@H](C)CN1C(c1ccc(Cl)cc1)c1ccc(Cl)cc1 [Example 805] | – | – | 1700 | 11000 | – | – | – | 9800 |
| C[C@@H]1CN(c2c(C#N)c(=O)n(C)c3ccc(C#N)nc23)[C@@H](C)CN1C(c1ccccc1)c1ccc(F)cc1 (stereo partly drawn) [Example 807] | – | – | 2600 | 5000 | – | – | – | 2500 |
| C[C@@H]1CN(c2c(C#N)c(=O)n(C)c3ccc(C#N)nc23)[C@@H](C)CN1C(c1ccccc1)c1ccc(F)cc1 (stereo partly drawn) [Example 808] | – | – | 1600 | 4200 | – | – | 1300 | – |
| Cc1cccc(C(c2ccc(F)cc2)N2C[C@H](C)N(c3c(C#N)c(=O)n(C)c4ccc(C#N)nc34)C[C@H]2C)n1 (stereo partly drawn) [Example 815] | – | – | 4100 | 7700 | – | – | – | 1900 |
| Cc1cccc(C(c2ccc(F)cc2)N2C[C@H](C)N(c3c(C#N)c(=O)n(C)c4ccc(C#N)nc34)C[C@H]2C)n1 (stereo partly drawn) [Example 816] | – | – | 3100 | 2600 | – | – | 1100 | – |
| Cc1ccc(C(c2ccc(F)cc2)N2C[C@H](C)N(c3c(C#N)c(=O)n(C)c4ccc(C#N)nc34)C[C@H]2C)cc1 (stereo partly drawn) [Example 817] | – | – | 8600 | 22000 | – | – | 1100 | – |
| Cc1ccc(C(c2ccc(F)cc2)N2C[C@H](C)N(c3c(C#N)c(=O)n(C)c4ccc(C#N)nc34)C[C@H]2C)cc1 (stereo partly drawn) [Example 818] | – | – | 7300 | 58000 | – | – | 4200 | – |
| C[C@@H]1CN(c2c(C#N)c(=O)n(C)c3ccc(C#N)nc23)[C@@H](C)CN1C(c1ccc(F)cc1)c1ccc(F)cn1 (stereo partly drawn) [Example 827] | – | – | 10000 | 4400 | – | – | 1300 | – |
| C[C@@H]1CN(c2c(C#N)c(=O)n(C)c3ccc(C#N)nc23)[C@@H](C)CN1C(c1ccc(F)cc1)c1ccc(F)cn1 (stereo partly drawn) [Example 828] | – | – | 16000 | 4200 | – | – | 2700 | – |
| Cc1ccc(C(c2ccc(F)cc2Cl)N2C[C@H](C)N(c3c(C#N)c(=O)n(C)c4ccc(C#N)nc34)C[C@H]2C)nc1 (stereo partly drawn) [Example 831] | – | – | 6500 | 42000 | – | – | – | 2500 |
| Cc1ccc(C(c2ccc(F)cc2Cl)N2C[C@H](C)N(c3c(C#N)c(=O)n(C)c4ccc(C#N)nc34)C[C@H]2C)nc1 (stereo partly drawn) [Example 832] | – | – | 2700 | 19000 | – | – | 1800 | – |
| C[C@@H]1CN(c2c(C#N)c(=O)n(C)c3ccc(C#N)nc23)[C@@H](C)CN1C(c1ccccc1)c1ccc(Cl)cc1 (stereo partly drawn) [Example 834] | – | – | 6000 | 22000 | – | – | 3600 | – |
| C[C@@H]1CN(c2c(C#N)c(=O)n(C)c3ccc(C#N)nc23)[C@@H](C)CN1C(c1ccccc1)c1ccc(Cl)cc1 (stereo partly drawn) [Example 835] | – | – | 11000 | 11000 | – | – | 20000 | – |
| C[C@@H]1CN(c2c(C#N)c(=O)n(C)c3ccc(C#N)nc23)[C@@H](C)CN1C(c1ccc(F)cc1)c1cnn(C)c1 (stereo partly drawn) [Example 846] | – | – | 8600 | 12000 | – | – | – | 5100 |
| C[C@@H]1CN(c2c(C#N)c(=O)n(C)c3ccc(C#N)nc23)[C@@H](C)CN1C(c1ccc(F)cc1)c1cnn(C)c1 (stereo partly drawn) [Example 847] | – | – | 7400 | 22000 | – | – | 5000 | – |
| C[C@@H]1CN(c2c(C#N)c(=O)n(C)c3ccc(C#N)nc23)[C@@H](C)CN1C(c1ccc(F)cc1)c1cncn1C (stereo partly drawn) [Example 848] | – | – | 100000 | 230000 | – | – | – | 20000 |
| C[C@@H]1CN(c2c(C#N)c(=O)n(C)c3ccc(C#N)nc23)[C@@H](C)CN1C(c1ccc(F)cc1)c1cncn1C (stereo partly drawn) [Example 849] | – | – | 130000 | > 250000 | – | – | 20000 | – |
| Cc1ccc(C(c2ccc(C)cc2)N2CCN(c3c(C#N)c(=O)n(C)c4ccc(C#N)nc34)C[C@H]2C)cc1 [Example 870] | – | – | 310 | 2500 | – | – | – | 1400 |
| CCc1ccccc1C(c1ccc(F)cc1)N1CCN(c2c(C#N)c(=O)n(C)c3ccc(C#N)nc23)C[C@H]1C (stereo partly drawn) [Example 876] | – | – | 510 | 2400 | – | – | 2200 | – |
| CCc1ccccc1C(c1ccc(F)cc1)N1CCN(c2c(C#N)c(=O)n(C)c3ccc(C#N)nc23)C[C@H]1C (stereo partly drawn) [Example 877] | – | – | 240 | 5100 | – | – | 6000 | – |
| C[C@@H]1CN(c2c(C#N)c(=O)n(C)c3ccc(C#N)nc23)CCN1C(c1ccc(F)cc1)c1cccc(F)c1 (stereo partly drawn) [Example 880] | – | – | 2500 | 6500 | – | – | 20000 | – |
| C[C@@H]1CN(c2c(C#N)c(=O)n(C)c3ccc(C#N)nc23)CCN1C(c1ccc(F)cc1)c1cccc(F)c1 (stereo partly drawn) [Example 881] | – | – | 3000 | 5300 | – | – | 2100 | – |
| C[C@@H]1CN(c2c(C#N)c(=O)n(C)c3ccc(C#N)nc23)CCN1C(c1ccc(F)cc1)c1ccccc1F (stereo partly drawn) [Example 882] | – | – | 960 | 820 | – | – | 1700 | – |

Now from value to compound, other results behind:

| IC50 ([2]; liposome (LIPGLO) assay) [nM] | IC50 ([3]; liposome (LIPGLO) assay) [nM] | IC50 ([2]; DGKζ liposome (LIPGLO) assay) [nM] | IC50 ([3]; DGKα liposome (LIPGLO) assay) [nM] | Structure (SMILES) | EC50 [1, 4] [nM] | EC50 [1, 5] [nM] | EC50 [1, 6] [nM] | EC50 [1, 7] [nM] |
| --- | --- | --- | --- | --- | --- | --- | --- | --- |
| 46000 | 86000 | – | – | C[C@@H]1CN(c2cc(=O)n(C)c3ccc(C#N)nc23)[C@@H](C)CN1C(c1ccc(F)cc1)c1cncn1C (stereo partly drawn) [Example 704] | – | 17000 | – | – |
| 19000 | 220000 | – | – | C[C@@H]1CN(c2cc(=O)n(C)c3ccc(C#N)nc23)[C@@H](C)CN1C(c1ccc(F)cc1)c1cncn1C (stereo partly drawn) [Example 705] | 9100 | – | – | – |
| 51000 | 6600 | – | – | C[C@@H]1CN(c2cc(=O)n(C)c3ccc(C#N)nc23)[C@@H](C)CN1C(c1ccc(F)cc1)c1nccn1C (stereo partly drawn) [Example 713] | 13000 | – | – | – |
| 28000 | 18000 | – | – | C[C@@H]1CN(c2cc(=O)n(C)c3ccc(C#N)nc23)[C@@H](C)CN1C(c1ccc(F)cc1)c1nccn1C (stereo partly drawn) [Example 714] | 3900 | – | – | – |
| 8100 | 220 | – | – | C[C@@H]1CN(c2cc(=O)n(C)c3ccc(C#N)nc23)[C@@H](C)CN1C(c1ccc(F)cc1)c1ncco1 (stereo partly drawn) [Example 717] | – | 1600 | – | – |
| 4600 | 90 | – | – | C[C@@H]1CN(c2cc(=O)n(C)c3ccc(C#N)nc23)[C@@H](C)CN1C(c1ccc(F)cc1)c1ncco1 (stereo partly drawn) [Example 718] | 830 | – | – | – |
| 380 | 400 | – | – | C[C@@H]1CN(c2cc(=O)n(C)c3ccc(C#N)nc23)[C@@H](C)CN1C(c1ccc(F)cc1)c1ccns1 (stereo partly drawn) [Example 719] | 500 | – | – | – |
| 940 | 1100 | – | – | C[C@@H]1CN(c2cc(=O)n(C)c3ccc(C#N)nc23)[C@@H](C)CN1C(c1ccc(F)cc1)c1ccns1 (stereo partly drawn) [Example 720] | 1900 | – | – | – |
| – | – | 1100 | 72 | C[C@@H]1CN(c2cc(=O)n(C)c3ccc(C#N)nc23)[C@@H](C)CN1C(c1ccc(F)cc1)c1cscn1 (stereo partly drawn) [Example 721] | – | – | 3500 | – |
| – | – | 560 | 120 | C[C@@H]1CN(c2cc(=O)n(C)c3ccc(C#N)nc23)[C@@H](C)CN1C(c1ccc(F)cc1)c1cscn1 (stereo partly drawn) [Example 722] | – | – | 840 | – |
| – | – | 1600 | 120 | C[C@@H]1CN(c2cc(=O)n(C)c3ccc(C#N)nc23)[C@@H](C)CN1C(c1ccc(F)cc1)c1nc(C(F)F)no1 (stereo partly drawn) [Example 743] | – | – | – | 420 |
| – | – | 620 | 49 | C[C@@H]1CN(c2cc(=O)n(C)c3ccc(C#N)nc23)[C@@H](C)CN1C(c1ccc(F)cc1)c1nc(C(F)F)no1 (stereo partly drawn) [Example 744] | – | – | 310 | – |
| – | – | 470 | 380 | Cc1noc(C(c2ccc(F)cc2)N2C[C@H](C)N(c3cc(=O)n(C)c4ccc(C#N)nc34)C[C@H]2C)n1 (stereo partly drawn) [Example 745] | – | – | – | 1100 |
| – | – | 580 | 670 | C[C@@H]1CN(c2cc(=O)n(C)c3ccc(C#N)nc23)[C@@H](C)CN1C(c1ccc(F)cc1)c1nc(N2CCOCC2)no1 (stereo partly drawn) [Example 749] | – | – | 1200 | – |
| – | – | 240 | 480 | C[C@@H]1CN(c2cc(=O)n(C)c3ccc(C#N)nc23)[C@@H](C)CN1C(c1ccc(F)cc1)c1nc(N2CCOCC2)no1 (stereo partly drawn) [Example 750] | – | – | 150 | – |
| – | – | 61000 | 2600 | C[C@@H]1CN(c2cc(=O)n(C)c3ccc(C#N)nc23)[C@@H](C)CN1C(c1ccc(F)cc1)c1ncno1 (stereo partly drawn) [Example 755] | – | – | – | 18000 |
| – | – | 22 | 70 | C[C@@H]1CN(c2cc(=O)n(C)c3ccc(C#N)nc23)[C@@H](C)CN1C(c1ccc(Br)cc1)c1nc(C2CC2)no1 (stereo partly drawn) [Example 760] | – | – | 48 | – |
| – | – | 41 | 48 | C[C@@H]1CN(c2cc(=O)n(C)c3ccc(C#N)nc23)[C@@H](C)CN1C(c1ccc(Br)cc1)c1nc(C2CC2)no1 (stereo partly drawn) [Example 761] | – | – | 170 | – |
